# Measured values as given in US20230255904A1, “PHARMACEUTICAL COMPOSITION FOR PREVENTING OR TREATING CANCER COMPRISING NAPHTHOQUINONE-BASED COMPOUND AND IMMUNE CHECKPOINT INHIBITOR AS ACTIVE INGREDIENTS” (NADIANBIO LTD., priority 2020, published 2023).
# Legend:
# MC38 = test: Tumor growth inhibition, animal model for colorectal cancer I (MC38); format: in vivo, C57BL/6 mice; conditions: Experimental Example 4; Dunnione 40 mg/kg oral every day from 7th day; Anti-LAG3 antibody 200 μg/head i.p. on 7th, 10th, 14th, 17th days; Oxaliplatin 6 mg/kg i.p. on 7th and 14th days
# Experimental: (§1) All mice used in the experiments were raised in a sterile animal room with constant temperature (22° C. to 26° C.) and constant humidity (55% to 60%), acclimatized for 1 week while sufficiently supplying typical solid feed (Samtako Inc., Korea) and water, and then used. All experiments were conducted after obtaining approval from the Institutional Animal Care and Use Committee in accordance with the laboratory animal care and ethics regulations of the Institutional Animal Care and Use Committee of Wonkwang University.
# (§2) 7-week-old BALB/c or C57BL/6 mice were used, and subcutaneously inoculated using a 1-mL insulin syringe within 30 minutes after mixing the mouse cancer cells with 0.2 mL of PBS.
# (§3) After the cancer cell line was subcutaneously implanted, the administration of drugs was started when the size of the cancer reached 50 to 100 mm^3. The volumes (mm^3) of the tumors, which were generated after the inoculation, were measured at intervals of 3 days using a caliper, calculation was performed using the formula of […], and then the results thereof were compared.
# (§4) In addition, sole administration or co-administration of respective drugs was performed according to the administration schedules listed in Tables 4 to 34 below, the tumor volumes were then measured according to the tumor proliferation assessment method described in Example 1.1, the tumor growth inhibition rates (TGI (O)=(Vc−Vt)/Vc×100(%); Vc: tumor volume of control, Vt tumor volume of experimental group) were calculated based the tumor volumes, and the results thereof are shown in the respective tables and FIGS. 1 to 31.
# calreticulin (ecto-CRT) = test: Immunogenic cell death analysis: calreticulin on the surface of tumor cells by flow cytometry; format: cell-based; conditions: compared to the control
# Experimental: Calreticulin is one of the most important molecules in the immunogenic cell death process. When the calreticulin appears on membranes of tumor cell, a strong signal for phagocytotic cells including dendritic cells may be generated to cause the phagocytotic cells to attack dying tumor cells. This is the most significant “eat me” signal for immune cells. Whether or not immunogenic cell death was induced by the anticancer agents used in the present invention was assessed through the quantitative change of calreticulin expressed on the surface of cancer cells after the treatment with the anticancer agents. Single cells isolated from the tumor were incubated with anti-calreticulin antibody (ratio of 1:50) as a primary antibody at 4° C. for 30 minutes, and then washed 2 times with PBS.
# 4T1 = test: Tumor growth inhibition, animal model for breast cancer I (4T1); format: in vivo, BALB/c mice; conditions: Experimental Example 10; Dunnione 40 mg/kg oral every day from 5th day; Anti-CTLA4 antibody 200 μg/head i.p. at intervals of 3 days from 5th day, 4 times; Mitoxantrone 6 mg/kg i.p. once on 5th day
# Experimental: as §1, §2, §3, §4
# RENCA = test: Tumor growth inhibition, animal model for renal cancer (RENCA); format: in vivo, BALB/c mice; conditions: Dunnione 40 mg/kg oral every day from 7th day
# Experimental: as §1, §2, §3, §4
# B16F10 = test: Tumor growth inhibition, animal model for skin cancer (B16F10); format: in vivo,  mice; conditions: Experimental Example 26; Dunnione 40 mg/kg oral every day from 8th day; Everolimus 0.5 mg/kg oral every day from 8th day
# Experimental: as §1, §2, §3, §4
structure (smiles),measurement,setting,value
"O=C1[O][Pt]2([NH][C@@H]3CCCC[C@H]3[NH]2)[O]C1=O [Oxaliplatin, reference compound]",TGI (%),MC38,5.6%
CNC(=O)c1cccc(-c2ccc3c(N4CCOC[C@@H]4C)nc(N4CCOC[C@@H]4C)nc3n2)c1 [Vistusertib],Expression rate (%) of calreticulin on cell surface,"calreticulin (ecto-CRT); Colorectal cancer, MC38",175%
same,Expression rate (%) of calreticulin on cell surface,"calreticulin (ecto-CRT); Renal cancer, RENCA",341%
same,Expression rate (%) of calreticulin on cell surface,"calreticulin (ecto-CRT); Skin cancer (melanoma), B16F10",145%
CC(=O)O[C@H]1C(=O)[C@@]2(C)[C@H]([C@H](OC(=O)c3ccccc3)[C@]3(O)C[C@H](OC(=O)[C@H](O)[C@@H](NC(=O)c4ccccc4)c4ccccc4)C(C)=C1C3(C)C)[C@]1(OC(C)=O)CO[C@@H]1C[C@@H]2O [Paclitaxel],Expression rate (%) of calreticulin on cell surface,"calreticulin (ecto-CRT); Skin cancer (melanoma), B16F10",186%
"O=C1c2c(O)ccc(O)c2C(=O)c2c(NCCNCCO)ccc(NCCNCCO)c21 [Mitoxantrone, reference compound]",TGI (%),4T1,16.3%
same,Expression rate (%) of calreticulin on cell surface,"calreticulin (ecto-CRT); Breast cancer, 4T1",385%
CNC(=O)c1cc(Oc2ccc(NC(=O)Nc3ccc(Cl)c(C(F)(F)F)c3)c(F)c2)ccn1 [Regorafenib],Expression rate (%) of calreticulin on cell surface,"calreticulin (ecto-CRT); Colorectal cancer, MC38",134%
same,Expression rate (%) of calreticulin on cell surface,"calreticulin (ecto-CRT); Skin cancer (melanoma), B16F10",166%
"CNC(=O)c1cc(Oc2ccc(NC(=O)Nc3ccc(Cl)c(C(F)(F)F)c3)cc2)ccn1 [Sorafenib, reference compound]",TGI (%),"RENCA; Experimental Example 16, Sorafenib 10 mg/kg oral every day from 7th day",29.4%
same,Expression rate (%) of calreticulin on cell surface,"calreticulin (ecto-CRT); Liver cancer, Hapa1-6",435%
CCN1CCN(Cc2ccc(Nc3ncc(F)c(-c4cc(F)c5nc(C)n(C(C)C)c5c4)n3)nc2)CC1 [Abemaciclib],Expression rate (%) of calreticulin on cell surface,"calreticulin (ecto-CRT); Breast cancer, EMT6",263%
"CO[C@H]1C[C@@H]2CC[C@@H](C)[C@@](O)(O2)C(=O)C(=O)N2CCCC[C@H]2C(=O)O[C@H]([C@H](C)C[C@@H]2CC[C@@H](OCCO)[C@H](OC)C2)CC(=O)[C@H](C)/C=C(\C)[C@@H](O)[C@@H](OC)C(=O)[C@H](C)C[C@H](C)/C=C/C=C/C=C/1C [Everolimus, reference compound]",TGI (%),B16F10,28.5%
same,TGI (%),"RENCA; Experimental Example 15, Anti-CTLA4 antibody 200 μg/head i.p. at intervals of 3 days from 7th day, 7 times, Everolimus 250 μg/kg oral every day from 7th day",72.8%
same,Expression rate (%) of calreticulin on cell surface,"calreticulin (ecto-CRT); Liver cancer, Hapa1-6",892%
same,Expression rate (%) of calreticulin on cell surface,"calreticulin (ecto-CRT); Renal cancer, RENCA",134%
same,Expression rate (%) of calreticulin on cell surface,"calreticulin (ecto-CRT); Skin cancer (melanoma), B16F10",216%
COc1cccc2c1C(=O)c1c(O)c3c(c(O)c1C2=O)C[C@@](O)(C(=O)CO)C[C@@H]3O[C@H]1C[C@H](N)[C@H](O)[C@H](C)O1 [Adriamycin],Expression rate (%) of calreticulin on cell surface,"calreticulin (ecto-CRT); Breast cancer, 4T1",307%
